From patent US20130177610A1, “NANO-METALLIC ALLOY DELIVERY SYSTEM FOR TREATMENT OF INFECTED CELLS AND LEGIONS” (UNIVERSITY OF NORTH CAROLINA AT GREENSBORO, priority 2008, published 2013)

System: S. Aureus in osteoblast cells
Test: Confocal microscopy live/dead staining (SYTO 9 / propidium iodide) of infected osteoblasts
Format: cell-based, Staphylococcus aureus
Details: gentamycine alone, FIG. 6C
Description: Confocal microscopy provided the evidence for intracellular bacteria killing. Osteoblast cells were cultured on 18 mm cover slips in a six well plate. Cells were treated with nanoparticles 1 ug/mL. The stain used was from invitrogen (L-7002) with two types of Dyes, SYTO 9 dye, 3,34 mM (Component A), 300 μL solution in DMSO and Propidium iodide PI, 20 mM (Component B), 300 μL solution in DMSO. The plates were incubated in the dark for 15 minutes after which the coverslips with growing co-cultured cells were gently removed and were placed on a glass slide containing 50 μL of 10%A glycerol with cells lying between the cover slip and the glass slide. The slide was observed under a confocal microscope using bandpass filters for red and green color. Images were obtained at different working distances and were superimposed by an Olympus CCD camera software to get images with dual color. […] Gentamycine is an antibiotic that is not capable of penetrating the bone cells membrane.

Substance: gentamycine
- dead bacteria (red) in infected osteoblast cells, confocal image: no significant numbers of dead bacteria
